Assay results published in PubChem BioAssay AID652241 (Broad Institute, 2013).
Records with an inconclusive call do not appear. Active and inactive are the calls of the source.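 The calls were made as follows: active = fitted curve reaches activity 50 in the expected rising direction at or below the top valid tested dose; inconclusive = no clear call, values can overlap the other calls; inactive = activity in the wrong direction, and the rest.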

Target: Virion infectivity factor (Human immunodeficiency virus type 1 group M subtype B (isolate BH10)) + Virion infectivity factor (Human immunodeficiency virus type 1 group M subtype B (isolate BRU/LAI)) + Virion infectivity factor (Human immunodeficiency virus type 1 group M subtype B (isolate PCV12)) + Virion infectivity factor (Human immunodeficiency virus type 1 group M subtype B (isolate HXB2)) (UniProt P69720+P69721+P69722+P69723)
Assay: Vif multimerization inhibitor potency, dose response, imaging, HEK293T, cherry-picks (AID 652241);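 also: imaged cell signal that rises when Vif self-association is disrupted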
Conditions: 24 h

Sequence of Virion infectivity factor (Human immunodeficiency virus type 1 group M subtype B (isolate BH10)) + Virion infectivity factor (Human immunodeficiency virus type 1 group M subtype B (isolate BRU/LAI)) + Virion infectivity factor (Human immunodeficiency virus type 1 group M subtype B (isolate PCV12)) + Virion infectivity factor (Human immunodeficiency virus type 1 group M subtype B (isolate HXB2)) (P69720 whole entry, looked up): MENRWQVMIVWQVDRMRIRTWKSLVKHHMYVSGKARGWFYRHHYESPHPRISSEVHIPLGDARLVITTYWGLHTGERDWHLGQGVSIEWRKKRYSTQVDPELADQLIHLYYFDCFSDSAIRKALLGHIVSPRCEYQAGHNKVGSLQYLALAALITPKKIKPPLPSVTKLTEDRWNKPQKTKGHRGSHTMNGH
Sequence of Virion infectivity factor (Human immunodeficiency virus type 1 group M subtype B (isolate BH10)) + Virion infectivity factor (Human immunodeficiency virus type 1 group M subtype B (isolate BRU/LAI)) + Virion infectivity factor (Human immunodeficiency virus type 1 group M subtype B (isolate PCV12)) + Virion infectivity factor (Human immunodeficiency virus type 1 group M subtype B (isolate HXB2)) (P69721 whole entry, looked up): as the sequence (P69720 whole entry, looked up) above
Sequence of Virion infectivity factor (Human immunodeficiency virus type 1 group M subtype B (isolate BH10)) + Virion infectivity factor (Human immunodeficiency virus type 1 group M subtype B (isolate BRU/LAI)) + Virion infectivity factor (Human immunodeficiency virus type 1 group M subtype B (isolate PCV12)) + Virion infectivity factor (Human immunodeficiency virus type 1 group M subtype B (isolate HXB2)) (P69722 whole entry, looked up): as the sequence (P69720 whole entry, looked up) above
Sequence of Virion infectivity factor (Human immunodeficiency virus type 1 group M subtype B (isolate BH10)) + Virion infectivity factor (Human immunodeficiency virus type 1 group M subtype B (isolate BRU/LAI)) + Virion infectivity factor (Human immunodeficiency virus type 1 group M subtype B (isolate PCV12)) + Virion infectivity factor (Human immunodeficiency virus type 1 group M subtype B (isolate HXB2)) (P69723 whole entry, looked up): as the sequence (P69720 whole entry, looked up) above

SMILES	activity, higher = inhibition (at 19.5 µM (top of the series))	other results
Cc1cc(NS(=O)(=O)c2ccc(NC(=O)c3ccc(Cl)cc3Cl)cc2)no1	inactive	–
O=C(CCCSc1nc2ccccc2c(=O)[nH]1)c1ccccc1	inactive	–
CCC(=O)N(CCC1(C(C)C)CCOC(C)(C)C1)Cc1ccco1 (stereo not given)	inactive	–
COCCN(C(=O)COC(=O)Cc1ccc(Cl)cc1)c1c(N)n(Cc2ccccc2)c(=O)[nH]c1=O	inactive	–
CN1CCc2nc3ccc(F)cc3c(C(N)=O)c2C1	inactive	–
COC(=O)c1ccc(NCc2cc(O)ccc2O)cc1O	–	AC50: 10.9 µM
COc1ccc(-c2cc(N)n(S(=O)(=O)c3c(F)c(F)c(F)c(F)c3F)n2)cc1OC	–	AC50: 13.4 µM
CCC(=O)Nc1ccc(-c2nnc(SCc3ccc(C(=O)Nc4nccs4)cc3)n2CC)cc1	inactive	–
CCCn1c(=O)c(C(=O)Nc2ncccc2O)c(O)c2ccccc21	inactive	–
COc1cc(NC(=O)c2ccc(-c3csc(C)n3)cc2)c(OC)cc1Cl	–	AC50: 10.3 µM
CC(NC(=O)CSc1nc2c(c(C(F)(F)F)n1)CCc1ccccc1-2)c1ccccc1 (stereo not given)	inactive	–
O=C(Cn1ncc2c3ccccc3n(Cc3cccc(Cl)c3)c2c1=O)N1CCC2(CC1)OCCO2	inactive	–
Cc1cccc(N2CCN(C(=O)c3cc4ccccc4oc3=O)CC2)c1C	inactive	–
COc1cc(-c2cc(=O)c3c(O)c(OC)c(OC)c(O)c3o2)ccc1O	–	AC50: > 19.5 µM (inactive)
O=C(NCc1ccccn1)c1ccc(Cn2c(=S)[nH]c3ccc(Br)cc3c2=O)cc1	inactive	–
Cc1ccc(/C=C2/CNC/C(=C/c3ccc(C)cc3)C2=O)cc1	–	activity, higher = inhibition (at 2.1 µM (top of the series)): inactive
COc1ccc([C@H]2CC(=O)C=C(c3cc4ccccc4s3)C2)cc1	inactive	–
CCN(CC)C(=O)c1cccc(NC(=O)C2=COCCO2)c1	inactive	–
O=C1/C(=C/c2ccc(N3CCCC3)cc2)NC(=S)N1C1CC1	inactive	–
O=C(Nc1nn[nH]n1)c1cc(-c2ccc(Cl)c(Cl)c2Cl)nc2ccccc12	inactive	–
Nc1nonc1-c1nc2ccccc2n1CC(=O)NC1CCCC1	inactive	–
O=C(CCCCCn1c(=S)[nH]c2ccc(N3CCOCC3)cc2c1=O)NCc1ccccc1Cl	–	AC50: 6.23 µM

SMILES	activity, higher = inhibition (at 19.5 µM (top of the series))	other results
Cc1nn(C)cc1CN(C)Cc1ccc(OCC(O)CN2CCCCC2)cc1 (stereo not given)	inactive	–
COc1ccc(CCNC(=O)[C@@H](NC(N)=O)C(C)C)cc1	inactive	–
Cc1ccc(-c2nn3c(C)nnc3c3ccccc23)cc1S(=O)(=O)NCc1ccccc1	inactive	–
CCOC(=O)c1[nH]c2c(c1C)C(=O)CC(c1ccco1)C2 (stereo not given)	–	AC50: 5.79 µM
O=C(Cc1ccccc1)OCC(=O)c1ccc(F)cc1	inactive	–
OC(CNCc1ccccc1Cl)COc1ccc(F)cc1 (stereo not given)	inactive	–
CCN1C(=O)c2cccc3c(S(=O)(=O)Nc4ccccc4O)ccc1c23	inactive	–
O=C(NCc1cccnc1)NC1(C(F)(F)F)Oc2ccc(Cl)cc2O1 (stereo not given)	–	AC50: 9.05 µM
CCOC(=O)C1(Cc2ccccc2)CCN(Cc2csc(C(C)=O)c2)CC1	inactive	–
COc1ccc(Br)cc1C(=O)Nc1ccc(N2CCCC2)cc1	inactive	–
O=C(CCCCn1ccc(=O)[nH]c1=O)Nc1ccc(O)c(C(=O)O)c1	inactive	–
COc1ccc(/C=C2\CN(Cc3ccccc3)C/C(=C\c3ccc(OC)c(O)c3)C2=O)cc1O	–	activity, higher = inhibition (at 2.1 µM (top of the series)): inactive
O=C(c1cc(-c2ccncc2)nc2ccccc12)N1CCN(Cc2ccccc2)CC1	inactive	–
CCn1c(SCc2ccc(C(=O)Nc3nccs3)cc2)nnc1-c1ccc(N)cc1	inactive	–
CC1(C)CC(=O)C2=C(C1)Nc1ccccc1N(C(=O)C1CC1)C2c1ccco1 (stereo not given)	inactive	–
COC(=O)c1sc(-c2ccc(Cl)cc2)cc1NC(=O)CSCC(=O)O	inactive	–
Cc1ccc2c(c1)N(CC(=O)NCC1CCCO1)C(=O)C(C(C)C)O2 (stereo not given)	inactive	–
COc1ccc(CN(CC(=O)NC2CCCC2)C(=O)CN2C(=O)COc3ccccc32)cc1	inactive	–
COc1ccc(NC(=O)Cn2ncc(Cl)c(Cl)c2=O)cc1S(=O)(=O)N1CCOCC1	–	AC50: > 19.5 µM (inactive)
Cc1ccc(CNCCCSc2ncccn2)cc1	inactive	–
COc1c2ccoc2nc2c(OC)c(OC[C@@H](O)C(C)(C)O)ccc12	inactive	–
COc1ccc(/C=C/C(=O)c2cc(F)ccc2OC(=O)c2ccccc2OC)cc1OC	–	AC50: 1.33 µM

SMILES	activity, higher = inhibition (at 19.5 µM (top of the series))	other results
COc1ccc(CC(=O)Nc2ccc(-c3noc(-c4cc(OC)c(OC)c(OC)c4)n3)cc2)cc1	–	AC50: 13 µM
COc1c2occc2c(OC)c2c(=O)cc(C)oc12	inactive	–
Cc1cc(C)cc(NC(=O)CCc2nc3sc4c(c3c(=O)[nH]2)CCCC4)c1	–	AC50: 14.6 µM
CCN1CCc2c(sc(N)c2C(N)=O)C1	inactive	–
CCOc1nc(N2CCCCC2)nc(-n2cc(-c3ccccc3)nn2)n1	inactive	–
N#Cc1c(C(F)(F)F)cc(-c2ccco2)nc1SCc1ccncc1	–	AC50: 15.8 µM
COc1ccc(C(=O)NC2CC3CCCC(C2)N3Cc2ccccc2)cc1OC (stereo not given)	inactive	–
CCN(CC)c1ccc2cc(C(N)=O)c(=O)oc2c1	–	AC50: > 19.5 µM (inactive)
Cc1ccc(N(C)S(=O)(=O)c2ccc(-c3ccc(=O)[nH]n3)s2)cc1C	inactive	–
CC(Cc1ccc(O)cc1)NCC(O)c1cc(O)cc(O)c1 (stereo not given)	inactive	–
COc1ccc(CNC(=O)COC(=O)c2cc(S(=O)(=O)N3CCOCC3)ccc2O)cc1OC	inactive	–
CCOc1ccc(N2C(=O)/C(=C/c3cccs3)N(CC(=O)OC)C2=S)cc1	–	AC50: > 19.5 µM (inactive)
CCOC(=O)c1c(C)[nH]c(-c2csc(N)n2)c1C	inactive	–
O=C(COc1ccc(-n2cnnn2)cc1)Nc1cc(Cl)cc(Cl)c1	–	AC50: 12.1 µM
COC(=O)c1ccc(NCc2cc(O)ccc2O)cc1	–	AC50: 5.96 µM
CCN(CC)C(=O)c1sc2nc(-c3cccs3)cc(-c3cccs3)c2c1N	–	AC50: > 19.5 µM (inactive)
CC(C)CC(=O)Nc1ccc(-c2nnn(CC(=O)NCc3ccco3)n2)cc1	inactive	–
O=C(CSc1nnc(CNc2ccc(F)cc2)o1)c1ccccc1	inactive	–
O=C(CCc1ccccc1)Nc1ccccc1	inactive	–
COc1cc(C2C3=C(COC3=O)Oc3cc4c(cc32)OCO4)cc(OC)c1O (stereo not given)	–	AC50: 0.849 µM
N#Cc1c(-c2ccccc2)cc(C2CC2)nc1SCC(=O)c1cccs1	inactive	–
CCOc1ccc(Nc2nc3c(C)cccc3cc2C#N)cc1	–	AC50: 11.9 µM

SMILES	activity, higher = inhibition (at 19.5 µM (top of the series))	other results
O=C(c1cc(COc2cccc3cccnc23)on1)N1CCC[C@H]1CO	inactive	–
CN(C)c1ccc(/C=C/C(=O)c2ccc3c(c2)OCO3)cc1	inactive	–
CNC(=O)COc1ccccc1C(=O)Nc1ccc2c(c1)oc1ccccc12	inactive	–
CC(=O)Nc1ccc(C2(c3ccc(NC(C)=O)cc3)NC(=O)c3ccccc32)cc1	inactive	–
Cc1ccc(CNC(=O)c2cccc3c2C(=O)c2ccc(N4CCC(C)CC4)cc2S3(=O)=O)cc1	–	AC50: 14.4 µM
Cc1cc(NC(=O)CSc2nc3ccccc3c(=O)n2-c2ccccc2)no1	inactive	–
O=S(=O)(Nn1cnnc1)c1ccccc1	inactive	–
Cc1cc(C)c2nc3sc(C(=O)N4CCOCC4)c(N)c3cc2c1	–	AC50: 1.85 µM
CC(C)c1ccc(NC(=O)N2CCCC2C(=O)Nc2ccc(-n3cnnn3)cc2)cc1 (stereo not given)	inactive	–
COc1ccc(C(=O)Nc2c(Cl)cc(Cl)cc2C(=O)N2CCOCC2)cc1	inactive	–
COc1ccc(CN(C(=O)Cn2nnc(-c3ccc(C)o3)n2)C(C(=O)NCC2CCCO2)c2ccco2)cc1 (stereo not given)	inactive	–
COC(=O)c1ccc2c(=O)n(Cc3ccco3)c(SCC(=O)Nc3cc(C)on3)nc2c1	inactive	–
Cc1cc(OCC(C)C)ccc1/C(O)=C1/C(=O)C(=O)N(Cc2cccnc2)C1c1ccncc1 (stereo not given)	inactive	–
CCC(C)n1c(-c2cccs2)nc2nc3ccccc3nc21 (stereo not given)	inactive	–
CC(C(=O)O)c1ccc(N2Cc3ccccc3C2=O)cc1 (stereo not given)	inactive	–
COc1ccc(OC)c(NC(=O)c2nc(-c3ccccc3)oc2C)c1	inactive	–
COc1ccc(S(=O)(=O)Nc2cccc3ccc(O)cc23)cc1	inactive	–
Cc1nnc(NC(=O)Cn2nc(C)c3ccccc3c2=O)s1	inactive	–
C=CCNc1ncnc2c1ncn2C1OC(CO)C(O)C1O (stereo not given)	–	AC50: 5.47 µM
